Source: US9796686B2, “Antibacterial quinazoline-4(3H)-one derivatives” (priority 2014, dated 2017)
≈ marks a conversion by molar mass, not a printed value. Where a name gives a salt, the structure may show the parent alone. Read-outs that look alike come from different tables or passages of the source.

Experiments:
Experiment in all cases: Bacterial growth minimal inhibitory concentration, microdilution in cation-adjusted Mueller-Hinton Broth (CLSI M7-A7)
Assay type in all cases: cell-based
K. pneumoniae A-651 = conditions: for MIC: Klebsiella pneumoniae
Procedure: (§1) Minimal Inhibitory Concentrations (MICs; mg/L) were determined in cation-adjusted Mueller-Hinton Broth by a microdilution method following the description given in “Methods for Dilution Antimicrobial Susceptibility Tests for Bacteria that Grow Aerobically”, Approved standard, 7th ed., Clinical and Laboratory Standards Institute (CLSI) Document M7-A7, Wayne, Pa., U.S.A. (2006).
(§2) All Example compounds were tested against several Gram-positive and Gram-negative bacteria. […] K. pneumoniae A-651 is a multiply-resistant strain (in particular quinolone-resistant), while E. coli ATCC25922 and P. aeruginosa ATCC27853 are quinolone-sensitive strains.

P. aeruginosa ATCC27853 = conditions: for MIC: Pseudomonas aeruginosa
Procedure: as §1, §2

E. coli ATCC25922 = conditions: for MIC: Escherichia coli
Procedure: as §1, §2

[1] = A651, multiply-resistant strain (in particular quinolone-resistant), read-out: MIC for K. Pneumoniae A-651
[2] = ATCC27853, quinolone-sensitive strain, read-out: MIC for P. aeruginosa ATCC27853
[3] = ATCC25922, quinolone-sensitive strain, read-out: MIC for E. coli ATCC25922
[4] = multiply-resistant strain (in particular quinolone-resistant)

Row | Structure (SMILES) | MIC (K. pneumoniae A-651; [1]) [µg/mL] | MIC (P. aeruginosa ATCC27853; [2]) [µg/mL] | MIC (E. coli ATCC25922; [3]) [µg/mL] | further results
1 | C[C@@](CCn1cnc2cc(C#CC#CC3(O)COC3)ccc2c1=O)(C(=O)NO)S(C)(=O)=O [Example 4, (R)-N-hydroxy-4-(7-((3-hydroxyoxetan-3-yl)buta-1,3-diyn-1-yl)-4-oxoquinazolin-3(4H)-yl)-2-methyl-2-(methylsulfonyl)butanamide] | 4 (≈ 8.71 µM) | 4 (≈ 8.71 µM) | 4 (≈ 8.71 µM) | –
2 | C[C@@](CCn1cnc2cc(C#CC#C[C@@H]3C[C@H]3CO)ccc2c1=O)(C(=O)NO)S(C)(=O)=O [Example 5, (R)-N-hydroxy-4-(7-(((1R,2R)-2-(hydroxymethyl)cyclopropyl)buta-1,3-diyn-1-yl)-4-oxoquinazolin-3(4H)-yl)-2-methyl-2-(methylsulfonyl)butanamide] | 0.25 (≈ 0.546 µM) | 1 (≈ 2.19 µM) | ≤ 0.063 | –
3 | C[C@@](CCn1cnc2cc(C#CC#CC3(CO)CC3)ccc2c1=O)(C(=O)NO)S(C)(=O)=O [Example 6, (R)-N-hydroxy-4-(7-((1-(hydroxymethyl)cyclopropyl)buta-1,3-diyn-1-yl)-4-oxoquinazolin-3(4H)-yl)-2-methyl-2-(methylsulfonyl)butanamide] | 1 (≈ 2.19 µM) | 2 (≈ 4.37 µM) | 0.25 (≈ 0.546 µM) | –
4 | CC(C)(N)C#CC#Cc1ccc2c(=O)n(CC[C@](C)(C(=O)NO)S(C)(=O)=O)cnc2c1 [Example 7, (R)-4-(7-(5-amino-5-methylhexa-1,3-diyn-1-yl)-4-oxoquinazolin-3(4H)-yl)-N-hydroxy-2-methyl-2-(methylsulfonyl)butanamide formate] | – | – | – | MIC (K. pneumoniae A-651; A651, read-out: MIC for K. Pneumoniae A-651): 4 µg/mL; MIC (P. aeruginosa ATCC27853; ATCC27853, read-out: MIC for P. aeruginosa ATCC27853): 2 µg/mL; MIC (E. coli ATCC25922; ATCC25922, read-out: MIC for E. coli ATCC25922): 1 µg/mL
5 | C[C@@](CCn1cnc2cc(C#Cc3ccc(CCO)cc3)ccc2c1=O)(C(=O)NO)S(C)(=O)=O [Example 8, (R)-N-hydroxy-4-(7-((4-(2-hydroxyethyl)phenyl)ethynyl)-4-oxoquinazolin-3(4H)-yl)-2-methyl-2-(methylsulfonyl)butanamide] | 0.25 (≈ 0.517 µM) | 4 (≈ 8.27 µM) | 0.125 (≈ 0.259 µM) | –
6 | C[C@@](CCn1cnc2cc(C#CC#C[C@H]3C[C@@H]3CO)c(F)cc2c1=O)(C(=O)NO)S(C)(=O)=O [Example 9, (R)-4-(6-fluoro-7-(((1S,2S)-2-(hydroxymethyl)cyclopropyl)buta-1,3-diyn-1-yl)-4-oxoquinazolin-3(4H)-yl)-N-hydroxy-2-methyl-2-(methylsulfonyl)butanamide] | 0.25 (≈ 0.526 µM) | 1 (≈ 2.1 µM) | 0.125 (≈ 0.263 µM) | –
7 | C[C@@](CCn1cnc2cc(C#CC#C[C@@H](O)CO)ccc2c1=O)(C(=O)NO)S(C)(=O)=O [Example 10, (R)-4-(7-((R)-5,6-dihydroxyhexa-1,3-diyn-1-yl)-4-oxoquinazolin-3(4H)-yl)-N-hydroxy-2-methyl-2-(methylsulfonyl)butanamide] | 8 (≈ 17.9 µM) | 4 (≈ 8.94 µM) | 8 (≈ 17.9 µM) | –
8 | C[C@@](CCn1cnc2cc(C#CC#C[C@@H]3C[C@H]3CO)c(F)cc2c1=O)(C(=O)NO)S(C)(=O)=O [Example 11, (R)-4-(6-fluoro-7-(((1R,2R)-2-(hydroxymethyl)cyclopropyl)buta-1,3-diyn-1-yl)-4-oxoquinazolin-3(4H)-yl)-N-hydroxy-2-methyl-2-(methylsulfonyl)butanamide] | 0.25 (≈ 0.526 µM) | 1 (≈ 2.1 µM) | ≤ 0.063 | –
9 | C[C@@](CCn1cnc2cc(C#CC#CC3(CO)CC3)c(F)cc2c1=O)(C(=O)NO)S(C)(=O)=O [Example 12, (R)-4-(6-fluoro-7-((1-(hydroxymethyl)cyclopropyl)buta-1,3-diyn-1-yl)-4-oxoquinazolin-3(4H)-yl)-N-hydroxy-2-methyl-2-(methylsulfonyl)butanamide] | 0.5 (≈ 1.05 µM) | 2 (≈ 4.21 µM) | 0.25 (≈ 0.526 µM) | –
10 | C[C@@](CCn1cnc2cc(C#CC#CC34CC(CO)(C3)C4)ccc2c1=O)(C(=O)NO)S(C)(=O)=O [Example 13, (R)-N-hydroxy-4-(7-((3-(hydroxymethyl)bicyclo[1.1.1]pentan-1-yl)buta-1,3-diyn-1-yl)-4-oxoquinazolin-3(4H)-yl)-2-methyl-2-(methylsulfonyl)butanamide] | 0.25 (≈ 0.517 µM) | 0.5 (≈ 1.03 µM) | 0.125 (≈ 0.259 µM) | –
11 | C[C@@](CCn1cnc2cc(C#Cc3ccc(OCCO)cc3)ccc2c1=O)(C(=O)NO)S(C)(=O)=O [Example 14, (R)-N-hydroxy-4-(7-((4-(2-hydroxyethoxy)phenyl)ethynyl)-4-oxoquinazolin-3(4H)-yl)-2-methyl-2-(methylsulfonyl)butanamide] | 0.5 (≈ 1 µM) | 16 (≈ 32 µM) | 0.25 (≈ 0.5 µM) | –
12 | C[C@@](CCn1cnc2cc(C#CC#C[C@@H]3C[C@@H](O)[C@@H](O)C3)ccc2c1=O)(C(=O)NO)S(C)(=O)=O [Example 15, (R)-4-(7-(((1s,3R,4S)-3,4-dihydroxycyclopentyl)buta-1,3-diyn-1-yl)-4-oxoquinazolin-3(4H)-yl)-N-hydroxy-2-methyl-2-(methylsulfonyl)butanamide] | – | – | – | MIC for K. Pneumoniae A-651 (K. pneumoniae A-651; [4]): 1 µg/mL; MIC for P. aeruginosa ATCC27853 (P. aeruginosa ATCC27853; quinolone-sensitive strain): 2 µg/mL; MIC for E. coli ATCC25922 (E. coli ATCC25922; quinolone-sensitive strain): 1 µg/mL
13 | C[C@@](CCn1cnc2cc(C#Cc3ccc(C4(CO)CC4)cc3)ccc2c1=O)(C(=O)NO)S(C)(=O)=O [Example 16, (R)-N-hydroxy-4-(7-((4-(1-(hydroxymethyl)cyclopropyl)phenyl)ethynyl)-4-oxoquinazolin-3(4H)-yl)-2-methyl-2-(methylsulfonyl)butanamide] | 0.25 (≈ 0.491 µM) | 4 (≈ 7.85 µM) | 0.125 (≈ 0.245 µM) | –
14 | C[C@@]1(CO)C[C@H]1C#CC#Cc1ccc2c(=O)n(CC[C@](C)(C(=O)NO)S(C)(=O)=O)cnc2c1 [Example 17, (R)-N-hydroxy-4-(7-(((1S,2R)-2-(hydroxymethyl)-2-methylcyclopropyl)buta-1,3-diyn-1-yl)-4-oxoquinazolin-3(4H)-yl)-2-methyl-2-(methylsulfonyl)butanamide] | 0.125 (≈ 0.265 µM) | 0.5 (≈ 1.06 µM) | ≤ 0.063 | –
15 | C[C@@](CCn1cnc2cc(C#Cc3ccc([C@@H](O)CO)cc3)ccc2c1=O)(C(=O)NO)S(C)(=O)=O [Example 18, (R)-4-(7-((4((R)-1,2-dihydroxyethyl)phenyl)ethynyl)-4-oxoquinazolin-3(4H)-yl)-N-hydroxy-2-methyl-2-(methylsulfonyl)butanamide] | 2 (≈ 4 µM) | 4 (≈ 8.01 µM) | 0.5 (≈ 1 µM) | –
16 | C[C@@]1(C#CC#Cc2ccc3c(=O)n(CC[C@](C)(C(=O)NO)S(C)(=O)=O)cnc3c2)C[C@H]1CO [Example 20, (R)-N-hydroxy-4-(7-(((1R,2R)-2-(hydroxymethyl)-1-methylcyclopropyl)buta-1,3-diyn-1-yl)-4-oxoquinazolin-3(4H)-yl)-2-methyl-2-(methylsulfonyl)butanamide] | 0.5 (≈ 1.06 µM) | 1 (≈ 2.12 µM) | 0.125 (≈ 0.265 µM) | –
17 | C[C@@](CCn1cnc2c(F)c(C#CC#C[C@@H]3C[C@H]3CO)ccc2c1=O)(C(=O)NO)S(C)(=O)=O [Example 21, (R)-4-(8-fluoro-7-(((1R,2R)-2-(hydroxymethyl)cyclopropyl)buta-1,3-diyn-1-yl)-4-oxoquinazolin-3(4H)-yl)-N-hydroxy-2-methyl-2-(methylsulfonyl)butanamide] | 0.5 (≈ 1.05 µM) | 4 (≈ 8.41 µM) | 0.25 (≈ 0.526 µM) | –
18 | CN(C)CC(=O)OCC1(c2ccc(C#Cc3ccc4c(=O)n(CC[C@](C)(C(=O)NO)S(C)(=O)=O)cnc4c3)cc2)CC1.Cl [Example 22] | – | – | – | MIC for K. Pneumoniae A-651 (K. pneumoniae A-651; [4]): 4 µg/mL; MIC for P. aeruginosa ATCC27853 (P. aeruginosa ATCC27853; quinolone-sensitive strain): 16 µg/mL; MIC for E. coli ATCC25922 (E. coli ATCC25922; quinolone-sensitive strain): 0.5 µg/mL
19 | C[C@@](CCn1cnc2c(F)c(C#CC#C[C@H]3C[C@@H]3CO)ccc2c1=O)(C(=O)NO)S(C)(=O)=O [Example 23, (R)-4-(8-fluoro-7-(((1S,2S)-2-(hydroxymethyl)cyclopropyl)buta-1,3-diyn-1-yl)-4-oxoquinazolin-3(4H)-yl)-N-hydroxy-2-methyl-2-(methylsulfonyl)butanamide] | 0.5 (≈ 1.05 µM) | 4 (≈ 8.41 µM) | 0.5 (≈ 1.05 µM) | –
20 | C[C@]1(CO)C[C@@H]1C#CC#Cc1ccc2c(=O)n(CC[C@](C)(C(=O)NO)S(C)(=O)=O)cnc2c1 [Example 24, (R)-N-hydroxy-4-(7-(((1R,2S)-2-(hydroxymethyl)-2-methylcyclopropyl)buta-1,3-diyn-1-yl)-4-oxoquinazolin-3(4H)-yl)-2-methyl-2-(methylsulfonyl)butanamide] | 0.25 (≈ 0.53 µM) | 1 (≈ 2.12 µM) | 0.25 (≈ 0.53 µM) | –
21 | C[C@@](CCn1cnc2cc(C#CC#CC3(N)CC3)ccc2c1=O)(C(=O)NO)S(C)(=O)=O.O=CO [Example 25, (R)-4-(7-((1-aminocyclopropyl)buta-1,3-diyn-1-yl)-4-oxoquinazolin-3(4H)-yl)-N-hydroxy-2-methyl-2-(methylsulfonyl)butanamide formate] | 0.5 | 1 | 0.25 | –
